Assay results reported in patent US5446043A, “Isoquinolyl, quinoxalinyl and quinazolinyl derivatives as inhibitors of 5-lipoxygenase” (Imperial Chemical Industries Plc, priority 1989, dated 1995).

How the values were obtained:
[1] = biological target: T1, 5-LO (Homo sapiens, UniProt P09917); assay: Test b) heparinised human blood challenged with A23187, LTB4 radioimmunoassay (5-LO); type: cell-based; conditions: read-out: IC50 against LTB4
T1 construct: incubating a test compound with heparinised human blood, prior to challenge with the calcium ionophore A23187; endogenous in cells; host or cells: blood cells in heparinised human whole blood
T1 sequence (P09917 1-674): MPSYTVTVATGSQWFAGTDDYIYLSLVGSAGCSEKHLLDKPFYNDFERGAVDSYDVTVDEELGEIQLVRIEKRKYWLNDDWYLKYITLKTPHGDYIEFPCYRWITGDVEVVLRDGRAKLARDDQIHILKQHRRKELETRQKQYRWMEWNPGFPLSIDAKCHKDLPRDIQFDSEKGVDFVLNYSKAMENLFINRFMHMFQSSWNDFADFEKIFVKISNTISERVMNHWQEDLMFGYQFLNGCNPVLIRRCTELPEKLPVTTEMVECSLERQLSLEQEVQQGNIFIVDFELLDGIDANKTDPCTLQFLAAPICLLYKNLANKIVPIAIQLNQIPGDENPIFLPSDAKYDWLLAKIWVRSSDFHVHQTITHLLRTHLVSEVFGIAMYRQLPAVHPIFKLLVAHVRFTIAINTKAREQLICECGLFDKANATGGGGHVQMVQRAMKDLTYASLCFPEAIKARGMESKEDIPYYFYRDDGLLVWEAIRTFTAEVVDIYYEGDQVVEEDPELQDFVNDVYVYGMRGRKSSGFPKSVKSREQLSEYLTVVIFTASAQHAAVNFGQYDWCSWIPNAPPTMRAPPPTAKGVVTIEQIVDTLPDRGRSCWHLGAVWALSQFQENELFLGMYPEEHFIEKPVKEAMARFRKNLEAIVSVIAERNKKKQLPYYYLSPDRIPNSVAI
Protocol: (§1) b) An in vitro assay system involving incubating a test compound with heparinised human blood, prior to challenge with the calcium ionophore A23187 and then indirectly measuring the inhibitory effects on 5-LO by assaying the amount of LTB4 using the specific radioimmunoassay described by Carey and Forder (F. Carey and R. A. Forder, Brit. J. Pharmacol. 1985, 84, 34P) which involves the use of a protein-LTB4 conjugate produced using the procedure of Young et alia (Prostaglandins, 1983, 26(4), 605-613). The effects of a test compound on the enzyme cyclooxygenase (which is involved in the alternative metabolic pathway for arachidonic acid .and gives rise to prostaglandins, thromboxanes and related metabolites) may be measured at the same time using the specific radioimmunoassay for thromboxane B2 (T×B2) described by Carey and Forder (see above). This test provides an indication of the effects of a test compound against 5-LO and also cyclooxgenase in the presence of blood cells and proteins. It permits the selectivity of the inhibitory effect on 5-LO or cyclooxygenase to be assessed.

[2] = biological target: T2, cyclooxygenase (Homo sapiens, UniProt P23219); assay: Test b) heparinised human blood challenged with A23187, TxB2 radioimmunoassay (cyclooxygenase); type: cell-based; conditions: A23187, T×B2
T2 construct: incubating a test compound with heparinised human blood, prior to challenge with the calcium ionophore A23187; endogenous in cells; host or cells: blood cells (chiefly platelets, own knowledge) in heparinised human whole blood
T2 sequence (P23219 24-599): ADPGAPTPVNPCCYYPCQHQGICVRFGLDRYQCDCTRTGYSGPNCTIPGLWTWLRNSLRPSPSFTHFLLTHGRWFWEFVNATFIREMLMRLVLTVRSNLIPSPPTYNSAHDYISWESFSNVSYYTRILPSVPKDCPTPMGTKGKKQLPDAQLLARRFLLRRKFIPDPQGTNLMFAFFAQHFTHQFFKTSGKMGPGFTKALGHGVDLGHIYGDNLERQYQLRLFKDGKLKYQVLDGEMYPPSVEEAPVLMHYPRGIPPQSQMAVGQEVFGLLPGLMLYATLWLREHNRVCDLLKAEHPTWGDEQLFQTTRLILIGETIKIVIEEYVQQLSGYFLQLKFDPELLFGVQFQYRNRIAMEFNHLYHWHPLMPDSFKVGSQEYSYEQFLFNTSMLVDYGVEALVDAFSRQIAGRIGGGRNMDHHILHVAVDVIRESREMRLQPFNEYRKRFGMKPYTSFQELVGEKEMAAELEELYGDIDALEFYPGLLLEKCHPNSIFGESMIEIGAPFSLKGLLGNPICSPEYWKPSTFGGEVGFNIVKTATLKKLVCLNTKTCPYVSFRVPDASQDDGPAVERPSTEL
Protocol: as §1

[3] = tested on: 5-LO; assay: Test c) ex vivo assay: administration of compound, blood collection, A23187 challenge, LTB4 radioimmunoassay; type: in vivo
Protocol: c) An ex vivo assay system, which is a variation of test b) above, involving administration of a test compound (usually orally as the suspension produced when a solution of the test compound in dimethylsulphoxide is added to carboxymethylcellulose), blood collection, heparinisation, challenge with A23187 and radioimmunoassay of LTB4 and T×B2. This test provides an indication of the bioavailability of a test compound as an inhibitor of 5-LO or cyclooxygenase.

IC50 [1]: 8 µM
IC50 [2]: > 40 µM
Structure (SMILES): CO[C@H]1CCC[C@@]1(OC)c1cccc(OCC#Cc2ccccn2)c1 (relative stereo) [trans-1,2-dimethoxy-1-[3-(3-(2-pyridyl)prop-2-yn-1-yloxy)phenyl]-cyclopentane]
oral ED50 against LTB4 [3]: < 100 mg/k
